Laboratory results reported in article PMC4177760, “Cytotoxicity of four Aframomum species (A. arundinaceum, A. alboviolaceum, A. kayserianum and A. polyanthum) towards multi-factorial drug resistant cancer cell lines” (BMC Complementary and Alternative Medicine, 2014).
Read-outs that look alike come from different tables or passages of the source.

Assays:
[1] = tested on: drug-sensitive CCRF-CEM leukemia cells; test: Resazurin reduction assay, CCRF-CEM; assay type: cell-based, human
Method: (§1) The cell lines used the present work, their origins and their treatments were previously reported. They include drug-sensitive CCRF-CEM and multidrug-resistant P-glycoprotein over-expressing CEM/ADR5000 leukemia cells, the MDA-MB-231-pcDNA3 breast cancer cells and its resistant subline MDA-MB-231-BCRP clone 23), the HCT116 (p53^+/+) colon cancer cells and its knockout clones HCT116 (p53^-/-), the U87MG glioblastoma cells and its resistant subline U87MG.ΔEGFR, HepG2 hepatocarcinoma cells and AML12 normal hepatocytes. The CCRF-CEM and CEM/ADR5000 leukemia cells were maintained in RPMI 1640 medium (Invitrogen) supplemented with 10% fetal calf serum in a humidified 5% CO2 atmosphere at 37°C. Sensitive and resistant cells were kindly provided by Dr. Axel Sauerbrey (Department of Pediatrics, University of Jena, Jena, Germany). The generation of the resistant subline was previously described. Breast cancer cells, transduced with control vector (MDA-MB-231-pcDNA3) or with cDNA for the breast cancer resistance protein BCRP (MDA-MB-231-BCRP clone 23), were maintained under standard conditions as described above for CCRF-CEM cells. Human wild-type HCT116 (p53^+/+) colon cancer cells as well as knockout clones HCT116 (p53^-/-) derived by homologous recombination were a generous gift from Dr. B. Vogelstein and H. Hermeking (Howard Hughes Medical Institute, Baltimore, MD). Human glioblastoma multiforme U87MG cells (non-transduced) and U87MG cell line transduced with an expression vector harboring an epidermal growth factor receptor (EGFR) gene with a genomic deletion of exons 2 through 7 (U87MG.ΔEGFR) were kindly provided by Dr. W. K. Cavenee (Ludwig Institute for Cancer Research, San Diego, CA). MDA-MB-231-BCRP, U87MG.ΔEGFR and HCT116 (p53^-/-) were maintained in DMEM medium containing 10% FBS (Invitrogen) and 1% penicillin (100 U/mL)-streptomycin (100 μg/mL) (Invitrogen) and were continuously treated with 800 ng/mL and 400 μg/mL geneticin, respectively. Human HepG2 hepatocellular carcinoma cells and normal AML12 heptocytes were obtained from the American Type Culture Collection (ATCC, USA). The above medium without geneticin was used to maintain MDA-MB-231, U87MG, HCT116 (p53^+/+), HepG2 and AML12 cell lines. The cells were passaged twice weekly. All experiments were performed with cells in the logarithmic growth phase.
(§2) The cytotoxicity of the studied samples was performed by resazurin reduction assay as we previously described. Briefly, adherent cells at 1x10^4 cells were allowed to attach overnight and then treated with different studied samples. […] For suspension cells, aliquots of 2 × 10^4 cells per well were seeded in 96-well-plates in a final volume of 200 μL. […] The tested concentrations ranges were 0.16 μg/mL to 40 μg/mL for crude extracts and isolated compounds and 0.08 μg/mL to 20 μg/mL for doxorubicin. After 72 h incubation and a resazurin (Sigma-Aldrich, Schnelldorf, Germany) staining, fluorescence was measured on an Infinite M2000 Pro™ plate reader (Tecan, Crailsheim, Germany) using an excitation wavelength of 544 nm and an emission wavelength of 590 nm. Each assay was done at least two times, with six replicates each. IC50 values represent the sample’s concentrations required to inhibit 50% of cell proliferation and were calculated from a calibration curve by linear regression using Microsoft Excel.

[2] = tested on: MDA-MB-231-pcDNA3 breast cancer cells; test: Resazurin reduction assay, MDA-MB-231; assay type: cell-based; settings: MDA-MB-231, 72 h
Method: as §1, §2

[3] = tested on: HepG2 hepatocarcinoma cells; test: Resazurin reduction assay, HepG2; assay type: cell-based, human; settings: HepG2, 72 h
Method: as §1, §2

[4] = tested on: multidrug-resistant P-glycoprotein over-expressing CEM/ADR5000 leukemia cells; test: Resazurin reduction assay, CEM/ADR5000; assay type: cell-based, human; settings: for IC50: CEM/ADR5000, 72 h; for degree of resistance: IC50 CEM/ADR5000 divided by IC50 CCRF-CEM
Method: as §1, §2

[5] = tested on: MDA-MB-231-BCRP clone 23 breast cancer cells; test: Resazurin reduction assay, MDA-MB-231-BCRP; assay type: cell-based; settings: for degree of resistance: IC50 MDA-MB-231-BCRP divided by IC50 MDA-MB-231; for IC50: 72 h
Method: as §1, §2

[6] = tested on: AML12 normal hepatocytes; test: Resazurin reduction assay, AML12; assay type: cell-based; settings: 72 h
Method: as §1, §2

[7] = tested on: U87MG.ΔEGFR glioblastoma cells; test: Resazurin reduction assay, U87MG.ΔEGFR; assay type: cell-based, human; settings: for IC50: U87MG.ΔEGFR, 72 h; for degree of resistance: IC50 U87MG.ΔEGFR divided by IC50 U87MG
Method: as §1, §2

[8] = tested on: HCT116 (p53+/+) colon cancer cells; test: Resazurin reduction assay, HCT116 p53+/+; assay type: cell-based, human
Method: as §1, §2

[9] = tested on: HCT116 (p53-/-) colon cancer cells; test: Resazurin reduction assay, HCT116 p53-/-; assay type: cell-based, human; settings: for IC50: HCT116 p53-/-, 72 h; for degree of resistance: IC50 HCT116 p53-/- divided by IC50 HCT116 p53+/+
Method: as §1, §2

[10] = tested on: U87MG glioblastoma cells; test: Resazurin reduction assay, U87MG; assay type: cell-based, human; settings: 72 h
Method: as §1, §2

[11] = tested on: human promyeloleukemia cell line HL-60; design: method as in PMID 14505793, PMID 12832847, PMID 16310358; settings: HL-60, via a transient induction of caspase-3/CPP32 activity; cited from earlier work
[12] = tested on: nine cancer cell lines, sensitive and MDR phenotypes; test: Resazurin reduction assay, all tested cancer cell lines; assay type: cell-based; settings: read-out: IC50 values on all tested cancer cell lines
Method: The cell lines used the present work, their origins and their treatments were previously reported. They include drug-sensitive CCRF-CEM and multidrug-resistant P-glycoprotein over-expressing CEM/ADR5000 leukemia cells, the MDA-MB-231-pcDNA3 breast cancer cells and its resistant subline MDA-MB-231-BCRP clone 23), the HCT116 (p53^+/+) colon cancer cells and its knockout clones HCT116 (p53^-/-), the U87MG glioblastoma cells and its resistant subline U87MG.ΔEGFR, HepG2 hepatocarcinoma cells and AML12 normal hepatocytes. The CCRF-CEM and CEM/ADR5000 leukemia cells were maintained in RPMI 1640 medium (Invitrogen) supplemented with 10% fetal calf serum in a humidified 5% CO2 atmosphere at 37°C. Sensitive and resistant cells were kindly provided by Dr. Axel Sauerbrey (Department of Pediatrics, University of Jena, Jena, Germany). The generation of the resistant subline was previously described. […]
The cytotoxicity of the studied samples was performed by resazurin reduction assay as we previously described. […] After 72 h incubation and a resazurin (Sigma-Aldrich, Schnelldorf, Germany) staining, fluorescence was measured on an Infinite M2000 Pro™ plate reader (Tecan, Crailsheim, Germany) using an excitation wavelength of 544 nm and an emission wavelength of 590 nm. […]

[13] = single concentration 40 μg/mL, 72 h, preliminary test
[14] = Homo sapiens, HCT-116, 72 h, read-out: IC50
[15] = Homo sapiens, HCT-116, read-out: IC50
[16] = Homo sapiens, U-87 MG, read-out: IC50
[17] = Homo sapiens, CCRF-CEM, 72 h; read-out: IC50
[18] = MDA-MB-231-BCRP, read-out: IC50

Compound | Growth percentage (growth proliferation) of CCRF-CEM cells [1, 13] | IC50 ([2]; Homo sapiens, read-out: IC50) [µg/mL] | IC50 ([3]; Homo sapiens, read-out: IC50) [µg/mL] | IC50 ([4]; Homo sapiens, read-out: IC50) [µg/mL] | degree of resistance [4] | degree of resistance [5] | IC50 ([6]; Mus musculus, read-out: IC50) [µg/mL] | IC50 ([7]; Homo sapiens, read-out: IC50) [µg/mL] | IC50 [8, 14] [µg/mL] | IC50 [9, 15] [µg/mL] | IC50 [10, 16] [µg/mL] | IC50 [1, 17] [µg/mL] | other results
1,4-dihydroxybenzene [Compound 7] | more than 50% | – | – | – | – | – | – | – | – | – | – | – | –
CC1(C)CCC[C@@]2(C)[C@H]1CC[C@@]1(CO1)[C@@H]2C/C=C(/C=O)CC=O [Compound 1, aframodial] | more than 50% | – | – | – | – | – | – | – | – | – | – | – | –
C=C1CCC2C(C)(C)CCCC2(C)C1CC=C(C=O)CC=O (stereo not drawn) [Compound 2, 8(17),12-labdadien-15,16-dial] | more than 50% | – | – | – | – | – | – | – | – | – | – | – | –
CC1(C)CCCC2(C)C1CCC1(CO1)C2CC=C1CCOC1=O (stereo not drawn) [Compound 3, galanolactone] | more than 50% | – | – | – | – | – | – | – | – | – | – | – | –
CC1(C)CCCC2(C)C1CCC1(C=O)C(O)CC(C=O)=CCC21 (stereo not drawn) [Compound 4, galanal A] | 47.78% | > 40 | > 40 | > 40 | > 2.31 | < 0.70 | > 40 | > 40 | > 40 | > 40 | > 40 | – | IC50 ([1]; Homo sapiens, CCRF-CEM, 72 h, CCRF-CEM, read-out: IC50): 17.3 ± 1.96 µg/mL; IC50 ([5]; MDA-MB-231/BCRP, MDA-MB-231-BCRP, read-out: IC50): 28 ± 2.39 µg/mL
CC1(C)CCCC2(C)C1CCC1(C=O)C(O)CC(C=O)=CCC21 (stereo not drawn) [Compound 5, galanal B] | 49.81% | – | – | – | > 2.02 | – | – | – | – | – | – | – | IC50 [2]: - ((-): >40 μg/mL); IC50 [3]: - ((-): >40 μg/mL); IC50 ([1]; CCRF-CEM, 72 h): 19.81 ± 2.01 µg/mL; IC50 [4]: - ((-): >40 μg/mL); IC50 ([5]; MDA-MB-231-BCRP): - ((-): >40 μg/mL); IC50 [6]: - ((-): >40 μg/mL); IC50 [7]: - ((-): >40 μg/mL); IC50 ([8]; 72 h): - ((-): >40 μg/mL); IC50 [9]: - ((-): >40 μg/mL); IC50 [10]: - ((-): >40 μg/mL)
CC1=CC(O)C(C(C)C)CC1O (stereo not drawn) [Compound 6, 1-p-menthene-3,6-diol] | more than 50% | – | – | – | – | – | – | – | – | – | – | – | –
O=C1C[C@@H](c2ccc(O)cc2)Oc2cc(O)cc(O)c21 [Compound 8, naringenin] | 38.49% | 9.51 ± 1.03 | 23.5 ± 1.95 | 7.86 ± 0.74 | 0.64 | 1.91 | > 40 | 18 ± 1.34 | 13.7 ± 1.11 | 13.9 ± 0.94 | 29.8 ± 1.88 | 12.2 ± 1.87 | apoptosis induction [11]: induced apoptosis; IC50 [12]: < 40 µg/mL; IC50 [5, 18]: 18.1 ± 2.01 µg/mL; degree of resistance [7]: 0.60; degree of resistance [9]: 1.02
COc1ccc(-c2oc3cc(OC)cc(O)c3c(=O)c2OC)cc1 [Compound 9, kaempferol-3,7,4’-trimethylether] | 39.58% | > 40 | > 40 | 18.2 ± 1.18 | 0.99 | < 0.83 | > 40 | > 40 | > 40 | 36.7 ± 2.31 | > 40 | 18.4 ± 2.04 | IC50 ([5]; MDA-MB-231/BCRP): 33.1 ± 2.64 µg/mL
COc1cccc2c1C(=O)c1c(O)c3c(c(O)c1C2=O)C[C@@](O)(C(=O)CO)C[C@@H]3O[C@H]1C[C@H](N)[C@H](O)[C@H](C)O1 [Doxorubucin, Doxorubicin, reference compound] | – | 1.1 ± 0.01 | 1.41 ± 0.12 | > 20 | 1772 | 7.11 | > 40 | 6.11 ± 0.04 | 1.43 ± 0.02 | 4.06 ± 0.04 | 1.06 ± 0.03 | 0.11 ± 0.01 | IC50 ([12]; all nine tested cancer cell lines): < 40 µg/mL; IC50 [5, 18]: 7.83 ± 0.01 µg/mL; degree of resistance [7]: 5.76; degree of resistance [9]: 2.84
